The assay has as its system NFkB activity. Put plainly: Glucocorticoid Mediated Transrepression of NFkB Activity. Format: cell-based. As to conditions: Human A549 lung epithelial cells, NFkB dependent ELAM promoter alkaline phosphatase reporter, 3 ng/ml TNFα. An excerpt: Glucocorticoid Mediated Transrepression of NFkB Activity
Human A549 lung epithelial cells were engineered to contain a secreted placental alkaline phosphatase gene under the control of the distal region of the NFkB dependent ELAM promoter as previously described in Ray, K. P., Farrow, S., Daly, M., Talabot, F. and Searle, N. “Induction of the E-selectin promoter by interleukin 1 and tumour necrosis factor alpha, and inhibition by glucocorticoids” Biochemical Journal (1997) 328: 707-15.
Compounds were solvated and diluted in DMSO, and transferred directly into assay plates such that the final concentration of DMSO was 0.7%. Following the addition of cells (40K per well), plates were incubated for 1 hr prior to the addition of 3 ng/ml human recombinant TNFα. Following continued incubation for 16 hr, alkaline phosphatase activity was determined by measuring the change in optical density at 405 nm with time following the addition of 0.7 volumes of assay buffer (1 mg/ml p-nitrophenylphosphate dissolved in 1M diethanolamine, 0.28M NaCl, 0.5 mM MgCl2). Dose response curves were constructed from which EC50 values were estimated.

SMILES strings stand for the structures.

Take `COc1ccc(F)cc1C(C)(C)CC(O)(CNc1cc(C)cc2c1cnn2-c1cccc(C(=O)N[C@@H](C)C(N)=O)c1)C(F)(F)F` (stereo partly drawn) [Example 4, N-[(1S)-2-Amino-1-methyl-2-oxoethyl]-3-(4-{[4-[5-fluoro-2-(methyloxy)phenyl]-2-hydroxy-4-methyl-2-(trifluoromethyl)pentyl]amino}-6-methyl-1H-indazol-1-yl)benzamide]: the EC50 was below 3.16 nM.
The result for `CNC(=O)CNC(=O)c1cccc(-n2ncc3c(NCC(O)(CC(C)(C)c4cc(F)ccc4OC)C(F)(F)F)cc(C)cc32)c1` (stereo not shown) [Example 13, 3-(4-{[4-[5-Fluoro-2-(methyloxy)phenyl]-2-hydroxy-4-methyl-2-(trifluoromethyl)pentyl]amino}-6-methyl-1H-indazol-1-yl)-N-[2-(methylamino)-2-oxoethyl]benzamide] reads below 3.16 nM; that for `COc1ccc(F)cc1C(C)(C)CC(O)(CNc1cc(C)cc2c1cnn2-c1cccc(C(=O)N2CCC[C@@H]2C(N)=O)c1)C(F)(F)F` (mixture of isomers) [Example 7, 1-{[3-(4-{[4-[5-Fluoro-2-(methyloxy)phenyl]-2-hydroxy-4-methyl-2-(trifluoromethyl)pentyl]amino}-6-methyl-1H-indazol-1-yl)phenyl]carbonyl}-D-prolinamide], below 3.16 nM; that for `Cc1cc(NCC(O)(CC(C)(C)c2cc(F)ccc2O)C(F)(F)F)c2cnn(-c3cccc(C(=O)N[C@H](C)C(N)=O)c3)c2c1` (stereo partly drawn) [Example 11, N-[(1R)-2-Amino-1-methyl-2-oxoethyl]-3-(4-{[4-(5-fluoro-2-hydroxyphenyl)-2-hydroxy-4-methyl-2-(trifluoromethyl)pentyl]amino}-6-methyl-1H-indazol-1-yl)benzamide], below 3.16 nM.
Then `COc1ccc(F)cc1C(C)(C)CC(O)(CNc1cc(C)cc2c1cnn2-c1cccc(C(=O)NC(C)(C)C(N)=O)c1)C(F)(F)F` (racemic) [Example 5, N-(2-Amino-1,1-dimethyl-2-oxoethyl)-3-(4-{[4-[5-fluoro-2-(methyloxy)phenyl]-2-hydroxy-4-methyl-2-(trifluoromethyl)pentyl]amino}-6-methyl-1H-indazol-1-yl)benzamide], with below 3.16 nM; and `COc1ccc(F)cc1C(C)(C)CC(O)(CNc1cc(C)cc2c1cnn2-c1cccc(C(=O)NC(C)(C)C(N)=O)c1)C(F)(F)F` (single isomer, unassigned) [Example 5-A, N-(2-amino-1,1-dimethyl-2-oxoethyl)-3-(4-{[4-[5-fluoro-2-(methyloxy)phenyl]-2-hydroxy-4-methyl-2-(trifluoromethyl)pentyl]amino}-6-methyl-1H-indazol-1-yl)benzamide], with below 3.16 nM; and `COc1ccc(F)cc1C(C)(C)CC(O)(CNc1cc(C)cc2c1cnn2-c1cccc(C(=O)NCC(N)=O)c1)C(F)(F)F` (racemic) [Example 1, N-(2-Amino-2-oxoethyl)-3-(4-{[4-[5-fluoro-2-(methyloxy)phenyl]-2-hydroxy-4-methyl-2-(trifluoromethyl)pentyl]amino}-6-methyl-1H-indazol-1-yl)benzamide], with below 3.16 nM.
In turn, `COc1ccc(F)cc1C(C)(C)CC(O)(CNc1cc(C)cc2c1cnn2-c1cccc(C(=O)N[C@H](CO)C(N)=O)c1)C(F)(F)F` (stereo partly drawn) [Example 16, N-[(1R)-2-Amino-1-(hydroxymethyl)-2-oxoethyl]-3-(4-{[4-[5-fluoro-2-(methloxy)phenyl]-2-hydroxy-4-methyl-2-(trifluoromethyl)pentyl]amino}-6-methyl-1H-indazol-1-yl)benzamide] showed an EC50 below 3.16 nM.
The result for `Cc1cc(NCC(O)(CC(C)(C)c2cc(F)ccc2O)C(F)(F)F)c2cnn(-c3cccc(C(=O)N4CCC[C@@H]4C(N)=O)c3)c2c1` (stereo partly drawn) [Example 12, 1-{[3-(4-{[4-(5-Fluoro-2-hydroxyphenyl)-2-hydroxy-4-methyl-2-(trifluoromethyl)pentyl]amino}-6-methyl-1H-indazol-1-yl)phenyl]carbonyl}-D-prolinamide] reads below 3.16 nM; that for `COc1ccc(F)cc1C(C)(C)CC(O)(CNc1cc(C)cc2c1cnn2-c1cccc(C(=O)N[C@H](C)C(N)=O)c1)C(F)(F)F` (mixture of isomers) [Example 3, N-[(1R)-2-Amino-1-methyl-2-oxoethyl]-3-(4-{[4-[5-fluoro-2-(methyloxy)phenyl]-2-hydroxy-4-methyl-2-(trifluoromethyl)pentyl]amino}-6-methyl-1H-indazol-1-yl)benzamide], below 3.16 nM; that for `COc1ccc(F)cc1C(C)(C)CC(O)(CNc1cc(C)cc2c1cnn2-c1cccc(C(=O)N[C@H](C)C(N)=O)c1)C(F)(F)F` (single isomer, unassigned) [Example 3-A], below 3.16 nM.
The result for `COc1ccc(F)cc1C(C)(C)CC(O)(CNc1cc(C)cc2c1cnn2-c1cccc(C(=O)N(C)[C@H](C)C(N)=O)c1)C(F)(F)F` (stereo partly drawn) [Example 15, N-[(1R)-2-Amino-1-methyl-2-oxoethyl]-3-(4-{[4-[5-fluoro-2-(methloxy)phenyl]-2-hydroxy-4-methyl-2-(trifluoromethyl)-pentyl]amino}-6-methyl-1H-indazol-1-yl)-N-methylbenzamide] reads below 3.16 nM.
Then `COc1ccc(F)cc1C(C)(C)CC(O)(CNc1cc(C)cc2c1cnn2-c1cccc(C(=O)N(C)CC(N)=O)c1)C(F)(F)F` (single isomer, unassigned) [Example 2-A, N-(2-amino-2-oxoethyl)-3-(4-{[4-[5-fluoro-2-(methyloxy)phenyl]-2-hydroxy-4-methyl-2-(trifluoromethyl)pentyl]amino}-6-methyl-1H-indazol-1-yl)-N-methylbenzamide], with below 3.16 nM.
With `COc1ccc(F)cc1C(C)(C)C[C@@](O)(CNc1cc(C)cc2c1cnn2-c1cccc(C(=O)N2CCC[C@@H]2C(N)=O)c1)C(F)(F)F` (single isomer, unassigned) [Example 7-A], the EC50 was below 3.16 nM.
Then `COc1ccc(F)cc1C(C)(C)CC(O)(CNc1cc(C)cc2c1cnn2-c1cccc(C(=O)N2CCC[C@H]2C(N)=O)c1)C(F)(F)F` (stereo partly drawn) [Example 6, 1-{[3-(4-{[4-[5-Fluoro-2-(methyloxy)phenyl]-2-hydroxy-4-methyl-2-(trifluoromethyl)pentyl]amino}-6-methyl-1H-indazol-1-yl)phenyl]carbonyl}-L-prolinamide], with below 3.16 nM; and `COc1ccc(F)cc1C(C)(C)CC(O)(CNc1cc(C)cc2c1cnn2-c1cccc(C(=O)N(C)[C@@H](C)C(N)=O)c1)C(F)(F)F` (stereo partly drawn) [Example 14, N-[(1S)-2-Amino-1-methyl-2-oxoethyl]-3-(4-{[4-[5-fluoro-2-(methloxy)phenyl]-2-hydroxy-4-methyl-2-(trifluoromethyl)pentyl]amino}-6-methyl-1H-indazol-1-yl)-N-methylbenzamide], with below 3.16 nM; and `Cc1cc(NCC(O)(CC(C)(C)c2cc(F)ccc2O)C(F)(F)F)c2cnn(-c3cccc(C(=O)NCC(N)=O)c3)c2c1` (stereo not shown) [Example 10, N-(2-Amino-2-oxoethyl)-3-(4-{[4-(5-fluoro-2-hydroxyphenyl)-2-hydroxy-4-methyl-2-(trifluoromethyl)pentyl]amino}-6-methyl-1H-indazol-1-yl)benzamide], with below 3.16 nM.
With `COc1ccc(F)cc1C(C)(C)CC(O)(CNc1cc(C)cc2c1cnn2-c1cccc(C(=O)N[C@@H](CO)C(N)=O)c1)C(F)(F)F` (stereo partly drawn) [Example 8, N-[(1S)-2-Amino-1-(hydroxymethyl)-2-oxoethyl]-3-(4-{[4-[5-fluoro-2-(methloxy)phenyl]-2-hydroxy-4-methyl-2-(trifluoromethyl)pentyl]amino}-6-methyl-1H-indazol-1-yl)benzamide], the EC50 is below 3.16 nM.
As to `COc1ccc(F)cc1C(C)(C)CC(O)(CNc1cc(C)cc2c1cnn2-c1cccc(C(=O)NCC(N)=O)c1)C(F)(F)F` (single isomer, unassigned) [Example 1-A, N-(2-amino-2-oxoethyl)-3-(4-{[4-[5-fluoro-2-(methyloxy)phenyl]-2-hydroxy-4-methyl-2-(trifluoromethyl)pentyl]amino}-6-methyl-1H-indazol-1-yl)benzamide], the EC50 was below 3.16 nM.
The result for `Cc1cc(NCC(O)(CC(C)(C)c2cc(F)ccc2O)C(F)(F)F)c2cnn(-c3cccc(C(=O)N(C)CC(N)=O)c3)c2c1` (stereo not shown) [Example 9, N-(2-Amino-2-oxoethyl)-3-(4-{[4-(5-fluoro-2-hydroxyphenyl)-2-hydroxy-4-methyl-2-(trifluoromethyl)pentyl]amino}-6-methyl-1H-indazol-1-yl)-N-methylbenzamide] reads below 3.16 nM; that for `Cc1cc(NC[C@](O)(CC(C)(C)c2cc(F)ccc2O)C(F)(F)F)c2cnn(-c3cccc(C(=O)N4CCC[C@@H]4C(N)=O)c3)c2c1` [Example 17, 1-{[3-(4-{[(2R)-4-(5-Fluoro-2-hydroxyphenyl)-2-hydroxy-4-methyl-2-(trifluoromethyl)pentyl]amino}-6-methyl-1H-indazol-1-yl)phenyl]carbonyl}-D-prolinamide], below 3.16 nM.
Then `COc1ccc(F)cc1C(C)(C)CC(O)(CNc1cc(C)cc2c1cnn2-c1cccc(C(=O)N(C)CC(N)=O)c1)C(F)(F)F` (racemic) [Example 2, N-(2-Amino-2-oxoethyl)-3-(4-{[4-[5-fluoro-2-(methyloxy)phenyl]-2-hydroxy-4-methyl-2-(trifluoromethyl)pentyl]amino}-6-methyl-1H-indazol-1-yl)-N-methylbenzamide], with below 3.16 nM.

As a reminder, the EC50 is the concentration giving half of the maximal effect.
